{"source": "paper PMC4235214", "about": "(mBio, 2014)", "key": {"EHEC": {"test_system": "EHEC", "assay_type": "cell-based, enterohemorrhagic Escherichia coli (EHEC) O157:H7"}, "S. Typhimurium": {"test_system": "S. Typhimurium", "assay_type": "cell-based, Salmonella enterica serovar Typhimurium", "conditions": "J774 macrophages, 5 nM"}, "[1]": {"test_system": "S. Typhimurium strain SL1344", "parameters": "species or system mice (BALB/c)", "conditions": "mouse, in vivo"}, "EAEC O104:H4 [2]": {"test_system": "EAEC O104:H4", "assay_type": "cell-based, enteroaggregative E. coli (EAEC)", "conditions": "EAEC O104:H4, 5 nM, 24 h"}, "UPEC": {"test_system": "UPEC", "assay_type": "cell-based, uropathogenic E. coli (UPEC)", "conditions": "for reduction of biofilm formation: 24 h"}, "[3]": {"test_system": "Pseudomonas and Klebsiella isolates", "assay_type": "cell-based"}, "EAEC O104:H4 [4]": {"test_system": "EAEC O104:H4", "assay_type": "cell-based, enteroaggregative E. coli (EAEC)"}, "[5]": {"conditions": "5, 20, and 80 mg/kg daily for 14 days"}, "QseC": {"test_system": "QseC", "conditions": "cited from earlier work"}, "in vivo": {"test": "in vivo", "conditions": "female, CD-1, mouse"}, "hERG channel": {"biological_target": "hERG channel (Homo sapiens, UniProt Q12809)", "sequence (Q12809 whole entry)": "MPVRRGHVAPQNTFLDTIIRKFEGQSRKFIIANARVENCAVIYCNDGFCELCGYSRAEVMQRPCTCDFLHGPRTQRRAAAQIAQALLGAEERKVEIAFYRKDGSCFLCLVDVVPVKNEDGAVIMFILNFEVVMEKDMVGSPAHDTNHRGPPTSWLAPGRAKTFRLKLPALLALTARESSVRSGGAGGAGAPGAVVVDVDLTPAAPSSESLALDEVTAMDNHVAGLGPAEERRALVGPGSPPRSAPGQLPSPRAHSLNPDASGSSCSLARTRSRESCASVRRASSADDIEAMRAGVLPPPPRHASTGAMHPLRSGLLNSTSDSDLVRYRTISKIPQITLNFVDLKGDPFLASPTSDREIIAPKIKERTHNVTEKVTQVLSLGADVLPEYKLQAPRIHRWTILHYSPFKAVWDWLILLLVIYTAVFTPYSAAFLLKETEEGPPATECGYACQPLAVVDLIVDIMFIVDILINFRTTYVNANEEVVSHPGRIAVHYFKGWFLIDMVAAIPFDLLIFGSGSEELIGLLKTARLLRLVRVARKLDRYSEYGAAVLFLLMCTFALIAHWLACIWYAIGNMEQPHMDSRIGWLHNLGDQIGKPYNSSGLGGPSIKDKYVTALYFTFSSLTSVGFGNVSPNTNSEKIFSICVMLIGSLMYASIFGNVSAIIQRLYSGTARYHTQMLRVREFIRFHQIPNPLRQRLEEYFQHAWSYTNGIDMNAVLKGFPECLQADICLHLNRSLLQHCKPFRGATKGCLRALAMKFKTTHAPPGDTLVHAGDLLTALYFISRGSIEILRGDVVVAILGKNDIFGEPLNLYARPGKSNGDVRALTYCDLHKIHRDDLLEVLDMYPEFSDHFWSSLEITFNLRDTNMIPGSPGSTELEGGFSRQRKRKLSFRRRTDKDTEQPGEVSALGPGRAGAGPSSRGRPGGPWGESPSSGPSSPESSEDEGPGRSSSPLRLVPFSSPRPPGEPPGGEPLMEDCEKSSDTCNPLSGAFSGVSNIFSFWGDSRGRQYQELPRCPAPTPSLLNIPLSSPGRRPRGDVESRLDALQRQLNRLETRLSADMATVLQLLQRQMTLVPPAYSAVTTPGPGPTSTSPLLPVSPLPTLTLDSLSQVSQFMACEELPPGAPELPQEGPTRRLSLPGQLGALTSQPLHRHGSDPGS", "test": "in vitro"}, "[6]": {"conditions": "mouse, in vivo; cited from earlier work"}}, "note": "Where two headings read alike, the source gives them in different places."}
{"compound": "O=C(Nc1ccccc1)Nc1ccc(NS(=O)(=O)c2ccccc2)cc1", "note": "[CF252, N-(4-(3-Phenylureido)phenyl)benzenesulfonamide]", "values": [{"measurement": "expression of ler and stx2a", "setting": "EHEC", "result": "reversed the antagonist behavior"}]}
{"compound": "O=C(Nc1ccccc1)Nc1ccc(S(=O)(=O)NC2CCCCC2)cc1", "note": "[CF283, N-Cyclohexyl-4-(3-phenylureido)benzenesulfonamide]", "values": [{"measurement": "expression of ler and stx2a", "setting": "EHEC", "result": "significantly reduced"}]}
{"compound": "COc1ccccc1NC(=O)Nc1ccc(S(=O)(=O)Nc2ccccc2)cc1", "note": "[CF287, 4-(3-(2-Methoxyphenyl)ureido)-N-phenylbenzenesulfonamide]", "values": [{"measurement": "expression of ler and stx2a", "setting": "EHEC", "result": "lost the antagonist activity"}]}
{"compound": "O=C(Nc1ccc(S(=O)(=O)Nc2ccccc2)cc1)Nc1nncs1", "note": "[CF290, 4-(3-(1,3,4-Thiadiazol-2-yl)ureido)-N-phenylbenzenesulfonamide]", "values": [{"measurement": "increase of ler", "setting": "EHEC", "result": 2, "unit": "fold"}]}
{"compound": "O=S(=O)(Nc1ccccc1)c1ccc(NC(=S)Nc2ccccc2)cc1", "note": "[LED209, N-phenyl-4-(3-phenylthioureido)benzenesulfonamide]", "values": [{"measurement": "expression of key virulence genes (ler, tir, stx2a)", "setting": "EHEC", "result": "phenocopied a qseC mutation"}, {"measurement": "expression of ler and stx2a", "setting": "EHEC", "result": "works as well as all of our previous LED209 batches"}, {"measurement": "expression of the virulence genes (LEE: ler, tir)", "setting": "EHEC", "result": "nonresponsive"}, {"measurement": "expression of the virulence genes (ler)", "setting": "EHEC", "result": "did not respond"}, {"measurement": "decrease of survival of S. Typhimurium within macrophages", "setting": "S. Typhimurium", "result": 4, "unit": "logs"}, {"measurement": "mice remained alive", "setting": "[1]", "result": 43, "unit": "%"}, {"measurement": "mice remained alive", "setting": "[1]; 20 mg/kg", "result": 60, "unit": "%"}, {"measurement": "mice survived", "setting": "[1]; po, 20 mg/kg", "result": 50, "unit": "%"}, {"measurement": "reduction of biofilm formation", "setting": "EAEC O104:H4 [2]", "result": 37, "unit": "%"}, {"measurement": "reduction in biofilm formation", "setting": "UPEC; UPEC clinical isolate 6", "result": 43, "unit": "%"}, {"measurement": "reduction in biofilm formation", "setting": "UPEC; UPEC clinical isolate 8", "result": 48, "unit": "%"}, {"measurement": "reduction in biofilm formation", "setting": "UPEC; UPEC clinical isolate 25", "result": 43, "unit": "%"}, {"measurement": "reduction of biofilm formation", "setting": "UPEC; UPEC strain CFT073, 5 nM, not significant", "result": 8, "unit": "%"}, {"measurement": "reduction of biofilm formation", "setting": "UPEC; UPEC strain UTI89, 5 nM", "result": 35, "unit": "%"}, {"measurement": "reduction of biofilm formation", "setting": "[3]; clinical isolate 18", "result": 26, "unit": "%"}, {"measurement": "reduction of biofilm formation", "setting": "[3]; clinical isolate 20", "result": 21, "unit": "%"}, {"measurement": "expression of stx2a", "setting": "EAEC O104:H4 [4]", "result": "significantly reduced"}, {"measurement": "penetration of the blood-brain barrier", "setting": "20 mg/kg", "result": "limited"}, {"measurement": "peak concentrations in plasma", "setting": "at each oral dose", "result": "high"}, {"measurement": "exposures versus dose", "setting": "oral doses above 80 mg/kg", "result": "increased less than proportionally"}, {"measurement": "oral bioavailability", "setting": "oral gavage, mice", "result": "good"}, {"measurement": "pharmacokinetics by the oral route", "setting": "oral gavage, mice", "result": "nonlinear"}, {"measurement": "liver toxicity", "setting": "[5]", "result": "no liver toxicity"}, {"measurement": "toxicity", "setting": "[5]", "result": "did not present any toxicity"}, {"measurement": "QseC binding to its signals and autophosphorylation", "setting": "QseC", "result": "preventing binding to its signals and consequently its autophosphorylation"}, {"measurement": "half-life", "setting": "in vivo", "result": "0.667 to 1.67", "unit": "h"}, {"measurement": "inhibition at 10 µM", "setting": "hERG channel", "result": 4, "unit": "%"}, {"measurement": "pharmacokinetics via the intravenous route", "setting": "[6]", "result": "linear"}]}
